Assay results reported in patent US20210369698A1 (Attillaps Holdings, priority 2019, published 2021).

Tested on: Demodex mites
Conditions: 10% chloroquine in water; in vitro; water control 44.8 hours
Protocol: In vitro efficacy and mite lifetimes: Relative efficacy of various formulations are evaluated with a demodex survival time experiments. FIG. 3 tabulates demodex survival time, expressed in terms of LT50 (time at which 50% of demodex mites are killed) and/or average minutes to death for various active agents.

CCN(CC)CCCC(C)Nc1ccnc2cc(Cl)ccc12 (stereo not shown) [chloroquine, Chloroquine]
LT50 (time at which 50% of demodex mites are killed): 31.6 h
